Key:
[1] = biological target: T1, human immunoproteasome β5i (Homo sapiens, UniProt P28062); experiment: IC50 against chymotryptic β5i activity of human immunoproteasome (96-well plate, Ac-ANW-AMC); assay type: biochemical; conditions: for IC50: β5i, substrate Ac-ANW-AMC, read-out: IC50 Hu i-20S (Ac-ANW-AMC)
T1 construct: purchased Boston Biochem Inc
Description: A 96-well-plate assays were used to determine the IC50s against the chymotryptic β5 activities of the proteasomes. Both human constitutive proteasome and immunoproteasome were purchased from Boston Biochem Inc. 1 μL of 100× compound in DMSO at designated concentrations were spotted at the bottom of the wells. DMSO was used as a control. […] The hydrolysis of the substrate over time in each well was monitored at excitation 360 nm, emission 460 nm for 90 minutes. IC50s were estimated by fitting the velocities of hydrolysis against compound concentrations using PRISM. […] SDS (0.02%) was used as activator, and 0.01% BSA was used in the reaction buffer.

[2] = biological target: T2, human constitutive proteasome β5c (Homo sapiens, UniProt P28074); experiment: IC50 against chymotryptic β5c activity of human constitutive proteasome (96-well plate, Suc-LLVY-AMC); assay type: biochemical; conditions: for IC50: β5c, substrate Suc-LLVY-AMC, read-out: IC50 Hu c-20S (Suc-LLVY-AMC)
T2 construct: purchased Boston Biochem Inc
Description: A 96-well-plate assays were used to determine the IC50s against the chymotryptic β5 activities of the proteasomes. Both human constitutive proteasome and immunoproteasome were purchased from Boston Biochem Inc. 1 μL of 100× compound in DMSO at designated concentrations were spotted at the bottom of the wells. DMSO was used as a control. Final concentrations of the inhibitors were from 100 μM to 0.098 μM. The hydrolysis of the substrate over time in each well was monitored at excitation 360 nm, emission 460 nm for 90 minutes. IC50s were estimated by fitting the velocities of hydrolysis against compound concentrations using PRISM. […] Suc-LLVY-AMC was used for βc at final concentration of 25 μM, and Ac-ANW-AMC for b5i at final concentration of 15 μM. SDS (0.02%) was used as activator, and 0.01% BSA was used in the reaction buffer.
The foregoing features of these AsnEDA encouraged a further round of SAR studies (Table 5) based on varying the carboxylic acid at the ethylenediamine, the N-cap at the Asn, and the side chain of the Asn, based on PKS21004. All compounds listed in the Table 5 were synthesized as described in Examples 6-77. All final compounds were confirmed by NMR and HRMS. IC50s of all compounds against β5i and β5c (Table 5), β1i, β2i, β1c and β2c were determined following a reported method (Lin et al., “N,C-Capped Dipeptides With Selectivity for Mycobacterial Proteasome Over Human Proteasomes: Role of S3 and S1Binding Pockets,” J Am Chem Soc. 135:9968-9971 (2013), which is hereby incorporated by reference in its entirety). […] The [1,1′-biphenyl]-3-carboxamide of PKS21004 was then modified with the following substituents: 4′-fluoro (PKS21026), 4′-cyano (PKS21028), 4-fluoro (PKS21196), 4,3′-difluoro (PKS21195) and 4,2′-difluoro (PKS21187).

Plasmodium falciparum = experiment: Growth of Plasmodium falciparum in red blood cells (SYBR Green, 72 hours); assay type: cell-based; conditions: Erythrocyte, P.f. 3D7, growth in red blood cells, read-out: EC50 (nM) (P.f.)
Description: Continuous in vitro cultures of Plasmodium falciparum: were maintained in human red blood cells (RBC) diluted to a hematocrit of 5% in RPMI 1640 medium with HEPES and Hypoxanthine and completed with 0.5% Albumax II (Invitrogen), 0.25% sodium bicarbonate, and 0.1 mg/ml gentamicin. Parasites were incubated at 37° C. in a gas mixture of 5% oxygen, 5% carbon dioxide, and 90% nitrogen.
Parasite sensitivity to novel compounds were determined using a SYBR Green (Invitrogen S1046) drug assay protocol. P. falciparum of various clinic stains were cultured with compounds at concentrations in a series of dilution in a clear, sterile 96-well plate for 72 hours. Subsequently, 150 μl of the cultures were transferred to a black 96-well plate and placed in the freezer for red blood cell lysis. The plates were thawed and suspended in a Sybr Green Lysis buffer. GraphPad Prism was used to analyze the raw data collected […]. Drug concentrations were converted to logarithms, normalized, and then curve fitted by non-linear regression to obtain EC50 values.
Plasmodium falciparum: parasites were cultured in human red cells. Drug assays were run in 96 well plates at a total volume of 200 μl. Assays were set up at a starting parasitemia (percent of infected red cells) of 0.5%. Test compounds were plated at concentrations of 2778 nM to 0.4 nM. The test plates were grown under standard low oxygen conditions at 37° C. for 72 hours. At that time the plates were prepared for growth determination, first the plates were frozen and thawed to lyse the red blood cells, 150 μl of the lysed thawed culture was transferred to a black 96 well plate, and mixed in a lysis buffer with SYBR green DNA dye. The fluorescence of each well was recorded in a plate reader with excitation wavelength 490 nm and emission wavelength 530 nm and normalized relative to DMSO control. The EC50s were determined using Prism software.

Row | SMILES | IC50 [1] [nM] | IC50 [2] [nM] | inhibitory activity against β5i (in words) [1] | inhibitory activity against β5c (in words) [2] | selectivity for β5i over β5c [1] [fold] | EC50 (Plasmodium falciparum) [nM]
1 | C[C@H](NC(=O)OC(C)(C)C)C(=O)NCCNC(=O)c1cc(-c2ccccc2F)ccc1F [PKS21280] | 33200 | > 100000 | abolished the inhibitory activities | abolished the inhibitory activities |  | 
2 | Cc1cc(C(=O)N[C@@H](CC(=O)NC(C)(C)C)C(=O)NCCNC(=O)c2cccc(-n3cccn3)c2)no1 [TDI4258] |  |  |  |  |  | 29
3 | Cc1cc(C(=O)N[C@@H](CC(=O)NC(C)(C)C)C(=O)NCCNC(=O)c2ccccn2)no1 [PKS21250] | 65600 | > 100000 |  |  |  | 
4 | CC(C)(C)NC(=O)C[C@H](NC(=O)CCc1ccccc1)C(=O)NCCNC(=O)c1cccc(-c2ccc(C#N)cc2)c1 [PKS21028] | 2060 | 7250 |  |  |  | 
5 | CC(C)(C)NC(=O)C[C@H](NC(=O)CCc1ccccc1)C(=O)NCCNC(=O)c1cccc(-c2ccc(F)cc2)c1 [PKS21026] | 110 | 1160 |  |  |  | 100
6 | CC(C)(C)NC(=O)C[C@H](NC(=O)CCc1ccccc1)C(=O)NCCNC(=O)c1cc(-c2ccccc2F)ccc1F [PKS21187] | 16 | 360 |  |  | ~20 | 
7 | CC(C)(C)NC(=O)C[C@H](NC(=O)CCc1ccccc1)C(=O)NCCNC(=O)c1cc(-c2ccccc2)ccc1F [PKS21196] | 44 | 818 |  |  |  | 
8 | CC(C)(C)NC(=O)C[C@H](N)C(=O)NCCNC(=O)c1cc(-c2ccccc2F)ccc1F [PKS21284] | 626 | 3090 |  |  |  | 
9 | CC(C)(C)NC(=O)C[C@H](NC(=O)CCc1ccc(F)cc1)C(=O)NCCNC(=O)c1cccc2cccnc12 [PKS21258] | 2410 | 22700 |  |  |  | 
10 | CC(C)(C)NC(=O)C[C@H](NC(=O)CCc1ccccc1)C(=O)NCCCNC(=O)c1cccc(-c2ccccc2)c1 [PKS21019] | 276 | 3460 |  |  |  | 30
11 | CC(C)(C)NC(=O)C[C@H](NC(=O)CCc1ccc(F)cc1)C(=O)NCCNC(=O)c1ccccc1F [PKS21255] | 740 | 3640 |  |  |  | 
12 | Cc1cc(C(=O)N[C@@H](CC(=O)NC(C)(C)C)C(=O)NCCNC(=O)c2cc(-c3ccccc3F)ccc2F)no1 [PKS21208] | 27 | 1040 |  |  |  | 
13 | O=C(CCc1ccc(F)cc1)N[C@@H](CC(=O)NC1(C(F)(F)F)CC1)C(=O)NCCNC(=O)c1cc(-c2ccccc2F)ccc1F [PKS21279] | 37 | 114 |  |  |  | 
14 | CC(C)(C)NC(=O)C[C@H](NC(=O)OC(C)(C)C)C(=O)NCCNC(=O)c1cc(-c2ccccc2F)ccc1F [PKS21277] | 112 | 3650 | modestly potent |  | 36 | 
15 | Cc1cc(C(=O)N[C@@H](CC(=O)NC(C)(C)C)C(=O)NCCNC(=O)c2ccccc2F)no1 [PKS21251] | 6340 | 39000 |  |  |  | 
16 | CC(C)(C)NC(=O)C[C@H](NC(=O)CCc1ccccc1)C(=O)NCCNC(=O)c1cc(-c2ccccc2)ccn1 [PKS21186] | 125 | 2760 |  |  |  | 
17 | CC(C)(C)NC(=O)C[C@H](NC(=O)CCc1ccc(F)cc1)C(=O)NCCNC(=O)c1ccccn1 [PKS21254] | 7770 | 57400 |  |  |  | 
18 | CC(C)(C)NC(=O)CC[C@H](NC(=O)CCc1ccccc1)C(=O)NCCNC(=O)c1cccc(-c2ccccc2)c1 [PKS21030] | 390 | 68 |  |  |  | 
19 | CC(C)(C)OC(=O)N[C@@H](CC(N)=O)C(=O)NCCNC(=O)c1cc(-c2ccccc2F)ccc1F [PKS21281] | > 100000 | > 100000 | abolished the inhibitory activities | abolished the inhibitory activities |  | 
20 | CC(C)(C)OC(=O)NCC(=O)NCCNC(=O)c1cc(-c2ccccc2F)ccc1F [PKS21276] | 24300 | > 100000 | abolished the inhibitory activities | abolished the inhibitory activities |  | 
21 | CC(C)(C)NC(=O)C[C@H](NC(=O)CCc1ccc(F)cc1)C(=O)NCCNC(=O)c1ccc(F)c2ccccc12 [PKS21259] | 158 | 2240 |  |  |  | 
22 | O=C(CCc1ccc(F)cc1)N[C@@H](CC(=O)NC1(C(F)(F)F)CC1)C(=O)NCCNC(=O)c1cccc(-c2ccccc2)c1 [PKS21278] | 80 | 165 |  |  |  | 

Now from value to compound, other results behind:

Row | IC50 [1] [nM] | IC50 [2] [nM] | inhibitory activity against β5i (in words) [1] | inhibitory activity against β5c (in words) [2] | selectivity for β5i over β5c [1] [fold] | SMILES | EC50 (Plasmodium falciparum) [nM]
23 | 620 | 13300 |  |  |  | CC(=O)N[C@@H](CC(=O)NC(C)(C)C)C(=O)NCCNC(=O)c1cc(-c2ccccc2F)ccc1F [PKS21294] | 
24 | 40300 | 60800 | eliminated inhibitory activity | eliminated inhibitory activity |  | Cc1ccc(S(=O)(=O)NCC(=O)NCCNC(=O)c2cc(-c3ccccc3F)ccc2F)cc1 [PKS21289] | 
25 | 12 | 420 |  |  |  | Cc1ccc(S(=O)(=O)N[C@@H](CC(=O)NC(C)(C)C)C(=O)NCCNC(=O)c2cc(-c3cccc(F)c3)ccc2F)cc1 [PKS21228] | 
26 | 129 | 2390 |  |  |  | Cc1ccc(S(=O)(=O)N[C@@H](CC(=O)NC(C)(C)C)C(=O)NCCNC(=O)c2cccc(N3CCNC3=O)c2)cc1 [PKS21295] | 
27 | > 100000 | > 100000 | eliminated inhibitory activity | eliminated inhibitory activity |  | Cc1ccc(S(=O)(=O)N[C@@H](C)C(=O)NCCNC(=O)c2cc(-c3ccccc3F)ccc2F)cc1 [PKS21290] | 
28 | 4140 | > 100000 | eliminated inhibitory activity | eliminated inhibitory activity |  | Cc1ccc(S(=O)(=O)N[C@@H](CC(N)=O)C(=O)NCCNC(=O)c2cc(-c3ccccc3F)ccc2F)cc1 [PKS21288] | 
29 | 15 | 960 |  |  |  | CC(C)(C)NC(=O)C[C@H](NS(=O)(=O)C1CC1)C(=O)NCCNC(=O)c1cc(-c2ccccc2F)ccc1F [PKS21293] | 
30 | 55 | 520 |  |  |  | Cc1ccc(S(=O)(=O)N[C@@H](CC(=O)NC(C)(C)C)C(=O)NCCNC(=O)c2ccccc2F)cc1 [PKS21291] | 11
31 | 15 | 187 |  |  |  | Cc1ccc(S(=O)(=O)N[C@@H](CC(=O)NC(C)(C)C)C(=O)NCCNC(=O)c2ccccc2O)cc1 [PKS21292] | 2.9
32 | 269 | 11800 |  |  |  | Cc1cc(C(=O)N[C@@H](CC(=O)NC(C)(C)C)C(=O)NCCNC(=O)c2cc(-c3cccc(F)c3)ccc2F)no1 [PKS21225] | 
33 | 69 | 1290 |  |  |  | Cc1ccc(S(=O)(=O)N[C@@H](CC(=O)NC(C)(C)C)C(=O)NCCNC(=O)c2cccc(-c3cc[nH]n3)c2)cc1 [PKS21282] | 
34 | 59 | 1940 |  |  |  | CC(C)(C)NC(=O)C[C@H](NC(=O)CCc1ccccc1)C(=O)NCCNC(=O)c1cc(-c2cccc(F)c2)ccc1F [PKS21195] | 

Reference: US11629141B2, “Proteasome inhibitors and uses thereof” (CORNELL UNIVERSITY, priority 2015, dated 2023)
